{
  "source": "patent US20250000907A1",
  "about": "“ENGINEERED IMMUNE CELLS WITH REDUCED SIRT6 EXPRESSION” (H. LEE MOFFITT CANCER CENTER AND RESEARCH INSTITUTE, INC., priority 2021, published 2025)",
  "key": {"[1]": {"test_system": "patient-derived human NSCLC tumor cells", "test": "LDH cytotoxic assay of human NSCLC TILs co-cultured with autologous tumor cells", "assay_type": "cell-based", "settings": "ex vivo expanded autologous TILs co-cultured with patient-derived NSCLC tumor cells", "method": "Evaluation of functional cytotoxic activity was performed using Pierce™ LDH Cytotoxicity Assay Kit (Thermo Fisher Scientific) according to the manufacturer's protocol. B16F10 cells or human NSCLC autologous tumor cells were used as target cells. Mouse CD8+ enriched T cells from gp100-stimulated Pmel splenocytes or human NSCLC TILs were used as effector cells. Target tumor cells were co-cultured with effector cells in 96-well round-bottom microplates at the indicated effector:target ratios with and without Sirt6 inhibitor. After 6 hr, the percentage of specific LDH release was calculated according to the following formula: % cell lysis=(experimental value−effector cells spontaneous release−target cells spontaneous release)×100/(target cells maximum release−target cells spontaneous release), where “experimental” corresponds to the experimental signal value, “effector spontaneous” to spontaneous release of LDH from effector cells alone, “target spontaneous” to spontaneous release of LDH from target cells alone and “maximum release” to the maximum release of LDH from target cells in medium containing 1% Triton X-100."}, "[2]": {"test_system": "activated CD3+ T cells", "test": "Western blot analysis of activated T cells", "assay_type": "cell-based, mouse", "method": "Whole cell lysates were prepared using lysis buffer (Pierce RIPA buffer, Thermo Fisher Scientific) supplemented with Complete™ protease inhibitor cocktail and PhosSTOP phosphatase inhibitor cocktail (Roche Applied Science).\nCell lysates (20 μg) or IP samples were loaded onto 10% SDS-PAGE and separated by electrophoresis followed by semi-dry transfer into polyvinylidene fluoride membranes (Immun-Blot® PVDF membrane, Bio-Rad) using Trans-Blot Turbo transfer system (Bio-Rad). After transfer, the membranes were blocked at room temperature with Tris-buffered saline (TBS) containing 0.05% Tween-20 (TBST) and 5% (w/v) non-fat dry milk for 1 hour and then incubated overnight at 4° C. with a specific primary antibody (indicated below). The membranes were washed three times with TBST and then incubated for 1 hour with horseradish peroxidase (HRP)-conjugated goat […] IgG H&L (Abcam, #ab97051, 1:3,000) for regular western blotting analysis, or HRP-conjugated mouse anti-rabbit IgG light-chain specific (Cell Signaling, #93702, 1:1,000) for IP samples. After washing 3 times with TBST, bound antibodies were detected by chemiluminescence using the Pierce™ ECL Western Blotting Substrate and the Super Signal West Femto Maximum Sensitivity Substrate kits (Thermo Fisher Scientific). Image acquisition was performed with the Amersham imager 600 system (GE Healthcare Bio-Sciences).\nImmunoblotting was performed using primary antibodies against: Sirt6, H3K9, acetylated-H3K9 and c-Myc (#9402, 1:1,000) from Cell signaling, LDH (#ab52488, 1:5,000), PFKP (#ab204131, 1:2,000), HK1 (#ab150423, 1:1,000), HIF-1α and beta-Actin from Abcam"}, "[3]": {"test_system": "human TILs from NSCLC patient tumor samples", "test": "Seahorse ECAR of human NSCLC TILs", "assay_type": "cell-based", "settings": "TILs from 6 NSCLC patients, OSS vs. DMSO", "method": "Human tumor infiltrating lymphocytes (hTILs) samples isolated from tumor biopsies of patients with non-small cell lung cancer (NSCLC) were generously provided by Moffitt Cancer Center. All human samples remained totally de-identified and no Institutional Review Board (IRB) approval was needed.\nhTILs were maintained in RPMI 1640 Medium, supplemented with 10% human AB serum (Valley Biomedical, Inc.), 1 mM Hepes (Sigma-Aldrich), 1% P/S (Thomas Scientific Inc), 50 μg/ml Gentamicin (ThermoFisher Scientific), 50μM β-mercaptoethanol (ThermoFisher Scientific) and 6000 U/ml of recombinant human IL-2 (Peprotech). For metabolic and functional assays, hTILs were cultured in completed RPMI medium, IL-2 free, on plate-bound anti-CD3 antibody (5 μg/ml; OKT-3, BioXCell) in the presence of vehicle or OSS (Selleck Chemicals) at the indicated concentrations.\nExtracellular acidification rate (ECAR) and oxygen consumption rate (OCR) were measured using the Seahorse XF analyzer (Agilent technologies). […] For GST, ECAR and OCR were measured under basal conditions and in response to 10 mM glucose, 1 μM oligomycin and 50 mM 2-DG successively to calculate basal glycolytic rate, glycolytic capacity (in response to oligomycin), and glycolytic reserve (glycolytic capacity-basal rate). […] Results were normalized to total protein quantified using Pierce™ BCA Protein Assay Kit (Thermo Fisher Scientific)."}, "[4]": {"settings": "activated CD3+ T cells, WB, FIG. 8J"}},
  "data": [
    {"smiles": "O=C(Nc1ccc(O)c(C(=O)O)c1)c1cccc(NC(=O)c2ccco2)c1", "note": "[OSS_128167]", "values": [
      {"measurement": "TIL cytotoxic activity", "setting": "[1]", "value": "enhanced"},
      {"measurement": "Glut1 protein expression levels", "setting": "[2]; [4]", "value": "upregulation"},
      {"measurement": "HK1 protein expression levels", "setting": "[2]; [4]", "value": "upregulation"},
      {"measurement": "LDHA protein expression levels", "setting": "[2]; [4]", "value": "upregulation"},
      {"measurement": "PFKP protein expression levels", "setting": "[2]; [4]", "value": "upregulation"},
      {"measurement": "H3K9 acetylation levels", "setting": "[2]; activated T cells, FIG. 8D", "value": "increased"},
      {"measurement": "HIF-1α expression levels", "setting": "[2]; activated T cells, FIG. 8D", "value": "no effect"},
      {"measurement": "c-Myc expression levels", "setting": "[2]; activated T cells, FIG. 8D", "value": "no effect"},
      {"measurement": "aerobic glycolysis (basal glycolysis, glycolytic capacity)", "setting": "[3]", "value": "increased"}
    ]}
  ]
}
